# From ChEMBL document CHEMBL1201862, “PubChem BioAssay data set” (2004)
# The source made the active and inactive calls.
# Tests used:
# Beta-lactamase [1] = molecular target: Beta-lactamase (Salmonella choleraesuis (strain SC-B67), UniProt Q5J463); assay: Epi-absorbance-based counterscreen for selective VIM-2 inhibitors: dose response biochemical high throughput screening assay to identify inhibitors of TEM-1 serine-beta-lactamase.
# Beta-lactamase [2] = molecular target: T1, Beta-lactamase (Pseudomonas aeruginosa, UniProt Q79MP6); assay: IMP-1 metallo-beta-lactamase inhibitors, dose response, selectivity assay for VIM-2 inhibitor project, biochemical, epi-absorbance (AID 1920)
# Beta-lactamase [3] = molecular target: T1, Beta-lactamase; assay: […] counterscreen for selective VIM-2 inhibitors: dose response biochemical high throughput screening assay to identify inhibitors of IMP-1 metallo-beta-lactamase.
# [4] = T. cruzi intracellular amastigote growth inhibition, dose response, imaging, CA-I/72 strain, bovine embryo skeletal muscle, dry powder (AID 651885); assay type: functional, cell-based
# cells = assay type: functional, cell-based
# [5] = molecular target: Nuclear receptor subfamily 0 group B member 1 (Homo sapiens, UniProt P51843); assay type: functional, cell-based;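 also: HEK293T cells transfected with SF-1 and DAX-1 plus StAR promoter luciferase reporter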
# Caspase-6 = Caspase-6 (Homo sapiens, UniProt P55212); assay: human caspase-6 inhibitors, dose response, biochemical, VEID-R110 fluorescence, cherry-pick (AID 720632)
# Hexokinase = molecular target: T2, Hexokinase (Trypanosoma brucei, UniProt Q38C41); assay: Confirmation assay for inhibitors of Trypanosoma brucei hexokinase 1-Analogue-first series. [Related pubchem assays (depositor defined):AID1430, AID1632, AID2516, AID2560, AID2579, AID2600, AID449725, AID492951]; assay type: functional
# T2 sequence (Q38C41 whole entry): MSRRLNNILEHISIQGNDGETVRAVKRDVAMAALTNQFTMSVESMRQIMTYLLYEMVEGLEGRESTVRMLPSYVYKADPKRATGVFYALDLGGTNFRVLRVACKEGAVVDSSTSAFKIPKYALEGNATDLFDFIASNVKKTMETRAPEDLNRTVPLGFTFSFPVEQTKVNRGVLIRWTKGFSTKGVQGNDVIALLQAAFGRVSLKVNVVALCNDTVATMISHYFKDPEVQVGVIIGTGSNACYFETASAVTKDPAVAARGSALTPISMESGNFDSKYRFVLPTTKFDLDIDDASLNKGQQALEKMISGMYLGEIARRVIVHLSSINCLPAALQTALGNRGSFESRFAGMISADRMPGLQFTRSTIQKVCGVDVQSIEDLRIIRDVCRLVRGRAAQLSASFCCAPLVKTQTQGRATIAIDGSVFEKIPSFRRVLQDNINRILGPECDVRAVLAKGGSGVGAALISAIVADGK
# [6] = molecular target: Glucose-6-phosphate 1-dehydrogenase (Homo sapiens, UniProt P11413); assay: human G6PD enzyme inhibitors, dose response, selectivity assay for P. falciparum G6PD inhibitor project, biochemical, fluorescence (AID 504792); assay type: functional
# [7] = Fluorescence-based cell-based high throughput dose response assay for inhibitors of the interaction of nucleotide-binding oligomerization domain containing 2 (NOD2) and the receptor-interacting serine-threonine kinase 2 (RIPK2).; assay type: functional; conditions: Homo sapiens
# Beta Lactamase = Beta Lactamase (Pseudomonas aeruginosa, UniProt Q932Y6); assay: beta-lactamase reporter inhibitor potency, dose response, artefact control for NOD2-RIPK2 interaction inhibitor project, BLA reporter cells, FRET fluorescence (AID 651552); assay type: functional, cell-based
# [8] = HeLa cell cytotoxicity, dose response, cytotoxicity control for MgcRacGAP inhibitor project (AID 624300); assay type: functional
# [9] = molecular target: T3, Rac GTPase-activating protein 1 (Homo sapiens, UniProt Q9H0H5); assay: MgcRacGAP GTPase-activating activity inhibitors, confirmation, biochemical, ADP Hunter fluorescence, primary and confirmatory (AID 624330); assay type: functional
# T3 sequence (Q9H0H5 whole entry): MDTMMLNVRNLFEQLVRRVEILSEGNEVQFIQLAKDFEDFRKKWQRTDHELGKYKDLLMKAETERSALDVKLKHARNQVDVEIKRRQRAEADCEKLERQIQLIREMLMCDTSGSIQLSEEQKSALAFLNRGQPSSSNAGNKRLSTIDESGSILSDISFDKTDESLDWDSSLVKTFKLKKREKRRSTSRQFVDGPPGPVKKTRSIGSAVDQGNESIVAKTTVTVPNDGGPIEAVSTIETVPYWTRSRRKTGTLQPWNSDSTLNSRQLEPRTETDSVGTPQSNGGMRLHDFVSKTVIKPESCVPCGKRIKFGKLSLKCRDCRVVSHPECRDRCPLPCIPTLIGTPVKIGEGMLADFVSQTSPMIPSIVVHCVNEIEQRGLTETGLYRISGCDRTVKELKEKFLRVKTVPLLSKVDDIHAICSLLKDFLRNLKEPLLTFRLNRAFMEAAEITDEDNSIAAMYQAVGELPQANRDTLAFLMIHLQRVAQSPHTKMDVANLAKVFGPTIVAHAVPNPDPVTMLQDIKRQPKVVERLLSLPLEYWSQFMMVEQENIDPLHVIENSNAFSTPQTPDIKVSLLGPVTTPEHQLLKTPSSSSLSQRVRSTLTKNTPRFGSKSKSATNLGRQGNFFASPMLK
# [10] = molecular target: SWI/SNF-related matrix-associated actin-dependent regulator of chromatin subfamily A member 2 (Homo sapiens, UniProt P51531); assay: Luminescence-based cell-based high throughput dose response assay to identify activators of the function of SWI/SNF related, matrix associated, actin dependent regulator of chromatin, subfamily a, member 2 (SMARCA2, BRM).; assay type: functional
# [11] = Counterscreen for activators of the function of SWI/SNF related, matrix associated, actin dependent regulator of chromatin, subfamily a, member 2 (SMARCA2, BRM): Luminescence-based cell-based high throughput dose response assay to identify non-selective compounds using the VP16 reporter assay.; assay type: functional
# [12] = molecular target: T4, Methionyl-tRNA synthetase, putative (Trypanosoma brucei brucei, UniProt Q38C91); assay type: functional, Trypanosoma brucei brucei strain 927/4 GUTat10.1
# T4 sequence (Q38C91 whole entry): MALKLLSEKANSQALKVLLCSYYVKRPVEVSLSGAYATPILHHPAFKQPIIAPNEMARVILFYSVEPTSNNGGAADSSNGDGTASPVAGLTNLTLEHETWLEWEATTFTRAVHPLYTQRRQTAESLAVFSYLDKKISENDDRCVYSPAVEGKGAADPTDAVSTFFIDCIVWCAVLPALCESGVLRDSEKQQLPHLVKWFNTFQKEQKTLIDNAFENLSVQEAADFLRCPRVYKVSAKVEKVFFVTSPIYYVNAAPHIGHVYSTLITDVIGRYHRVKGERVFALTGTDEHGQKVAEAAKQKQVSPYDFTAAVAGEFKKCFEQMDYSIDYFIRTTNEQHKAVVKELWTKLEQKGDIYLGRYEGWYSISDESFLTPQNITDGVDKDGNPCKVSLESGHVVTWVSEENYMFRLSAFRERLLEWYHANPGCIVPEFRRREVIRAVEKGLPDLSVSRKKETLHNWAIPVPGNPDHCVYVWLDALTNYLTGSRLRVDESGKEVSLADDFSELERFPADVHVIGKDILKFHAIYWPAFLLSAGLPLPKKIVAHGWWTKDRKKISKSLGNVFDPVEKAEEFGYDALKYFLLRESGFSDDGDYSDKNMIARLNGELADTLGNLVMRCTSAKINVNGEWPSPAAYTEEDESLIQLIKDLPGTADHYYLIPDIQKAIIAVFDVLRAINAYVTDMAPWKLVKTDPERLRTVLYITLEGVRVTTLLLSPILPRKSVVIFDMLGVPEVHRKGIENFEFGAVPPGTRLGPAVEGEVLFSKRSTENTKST
# [13] = Counterscreen for inhibitors of Trypanosoma brucei methionyl tRNA synthetase (MetRS): Luminescence-based cell-based high throughput dose response assay to identify compounds that are cytotoxic to Jurkat human T lymphocyte cells.; assay type: functional
# [14] = molecular target: T4, Methionyl-tRNA synthetase, putative; assay type: functional, Trypanosoma brucei brucei strain 927/4 GUTat10.1; remark: listed apart in the source
# [15] = molecular target: Nuclear receptor subfamily 5 group A member 2 (Homo sapiens, UniProt O00482); assay type: functional, cell-based;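 also: HEK293T cells transfected with LRH-1 and a StAR promoter luciferase reporter; potency for inhibitors that lower LRH-1 driven reporter light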
# Steroidogenic factor 1 = Steroidogenic factor 1 (Homo sapiens, UniProt Q13285); assay: Counterscreen for inverse agonists of the liver receptor homolog-1 (LRH-1; NR5A2): Luminescence-based cell-based high throughput dose response assay to identify inverse agonists of the Steroidogenic Factor 1 Nuclear Receptor (SF1; NR5A1).; assay type: functional
# [16] = StAR promoter reporter inhibition counter-screen, dose response, counter-screen for LRH-1 inverse agonist project, cell-based, luminescence, luciferase reporter (AID 651969); assay type: functional
# [17] = molecular target: Adenosylmethionine-8-amino-7-oxononanoate aminotransferase (Mycobacterium tuberculosis, UniProt P9WQ81); assay: Mycobacterium tuberculosis BioA enzyme inhibitor Measured in Biochemical System Using Plate Reader - 2163-02_Inhibitor_Dose_CherryPick_Activity.; assay type: functional, Mycobacterium tuberculosis UT205
# Chain of Adenosylmethionine-8-amino-7-oxononanoate aminotransferase (P9WQ81 whole entry): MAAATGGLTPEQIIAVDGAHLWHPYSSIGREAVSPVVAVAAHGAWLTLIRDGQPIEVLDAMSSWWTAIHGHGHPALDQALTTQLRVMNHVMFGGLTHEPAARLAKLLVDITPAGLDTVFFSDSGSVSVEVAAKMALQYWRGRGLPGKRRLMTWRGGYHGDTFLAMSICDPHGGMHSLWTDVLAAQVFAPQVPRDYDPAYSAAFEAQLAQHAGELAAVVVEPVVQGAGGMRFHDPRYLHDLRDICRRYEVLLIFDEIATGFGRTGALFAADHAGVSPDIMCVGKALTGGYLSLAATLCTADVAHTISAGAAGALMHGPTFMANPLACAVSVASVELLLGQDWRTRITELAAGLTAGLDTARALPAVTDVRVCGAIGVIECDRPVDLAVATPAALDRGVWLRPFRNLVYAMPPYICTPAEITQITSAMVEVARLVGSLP
# T1 sequence (Q79MP6 whole entry): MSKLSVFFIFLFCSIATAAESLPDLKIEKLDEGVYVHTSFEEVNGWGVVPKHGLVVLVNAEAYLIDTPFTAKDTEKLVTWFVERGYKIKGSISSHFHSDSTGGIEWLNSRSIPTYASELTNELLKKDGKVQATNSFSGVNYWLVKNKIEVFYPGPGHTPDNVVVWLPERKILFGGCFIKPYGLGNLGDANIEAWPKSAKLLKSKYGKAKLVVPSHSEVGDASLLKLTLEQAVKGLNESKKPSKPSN
# Chain of SWI/SNF-related matrix-associated actin-dependent regulator of chromatin subfamily A member 2 (P51531 whole entry): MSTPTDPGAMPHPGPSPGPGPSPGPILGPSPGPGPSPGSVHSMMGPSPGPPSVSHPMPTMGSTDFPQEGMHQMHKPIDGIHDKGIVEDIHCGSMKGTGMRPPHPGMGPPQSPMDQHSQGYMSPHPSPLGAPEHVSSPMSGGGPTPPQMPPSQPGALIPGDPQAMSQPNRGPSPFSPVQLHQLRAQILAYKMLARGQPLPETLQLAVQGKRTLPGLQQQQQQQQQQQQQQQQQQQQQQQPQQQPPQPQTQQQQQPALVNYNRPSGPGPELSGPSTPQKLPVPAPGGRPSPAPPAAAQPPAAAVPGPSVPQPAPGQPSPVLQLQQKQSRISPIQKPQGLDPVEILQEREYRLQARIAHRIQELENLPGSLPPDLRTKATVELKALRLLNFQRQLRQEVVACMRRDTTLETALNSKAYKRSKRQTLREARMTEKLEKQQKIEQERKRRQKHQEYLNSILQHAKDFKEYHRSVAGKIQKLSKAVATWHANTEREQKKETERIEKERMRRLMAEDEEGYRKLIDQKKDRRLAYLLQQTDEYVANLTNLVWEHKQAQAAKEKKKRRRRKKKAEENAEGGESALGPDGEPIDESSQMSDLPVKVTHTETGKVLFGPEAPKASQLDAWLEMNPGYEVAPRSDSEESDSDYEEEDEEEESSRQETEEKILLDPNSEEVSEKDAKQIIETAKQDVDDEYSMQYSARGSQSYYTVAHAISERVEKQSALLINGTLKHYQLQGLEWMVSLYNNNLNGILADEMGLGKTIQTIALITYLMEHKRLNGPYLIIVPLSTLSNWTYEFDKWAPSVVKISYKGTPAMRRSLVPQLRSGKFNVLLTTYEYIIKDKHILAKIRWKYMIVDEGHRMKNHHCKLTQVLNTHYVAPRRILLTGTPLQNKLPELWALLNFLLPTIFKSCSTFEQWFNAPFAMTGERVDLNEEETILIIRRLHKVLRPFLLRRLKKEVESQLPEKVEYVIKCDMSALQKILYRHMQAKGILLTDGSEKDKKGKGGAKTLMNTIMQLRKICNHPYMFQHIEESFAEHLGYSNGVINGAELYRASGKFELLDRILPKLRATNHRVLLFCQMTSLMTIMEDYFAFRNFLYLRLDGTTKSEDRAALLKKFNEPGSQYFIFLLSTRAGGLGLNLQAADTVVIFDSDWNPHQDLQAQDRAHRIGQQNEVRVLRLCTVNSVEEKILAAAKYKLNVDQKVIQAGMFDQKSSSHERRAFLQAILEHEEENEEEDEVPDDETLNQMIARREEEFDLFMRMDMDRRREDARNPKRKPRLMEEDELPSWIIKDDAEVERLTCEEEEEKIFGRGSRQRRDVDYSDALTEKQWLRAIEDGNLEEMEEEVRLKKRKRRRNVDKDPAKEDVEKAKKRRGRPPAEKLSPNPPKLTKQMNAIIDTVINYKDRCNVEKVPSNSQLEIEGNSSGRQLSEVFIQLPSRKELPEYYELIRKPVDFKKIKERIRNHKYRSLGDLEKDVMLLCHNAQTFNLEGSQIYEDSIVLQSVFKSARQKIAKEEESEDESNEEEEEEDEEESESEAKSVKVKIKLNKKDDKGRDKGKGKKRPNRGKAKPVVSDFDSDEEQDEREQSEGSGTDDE
# Chain of Beta-lactamase (Salmonella choleraesuis (strain SC-B67), UniProt Q5J463) (Q5J463 whole entry): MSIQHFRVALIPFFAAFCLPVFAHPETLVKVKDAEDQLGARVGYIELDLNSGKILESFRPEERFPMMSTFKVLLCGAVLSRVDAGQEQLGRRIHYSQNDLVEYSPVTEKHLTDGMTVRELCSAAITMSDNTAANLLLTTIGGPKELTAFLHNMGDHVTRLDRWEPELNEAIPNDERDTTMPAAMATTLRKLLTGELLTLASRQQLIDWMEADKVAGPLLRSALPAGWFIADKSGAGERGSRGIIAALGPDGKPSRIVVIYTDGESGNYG
# Chain of Nuclear receptor subfamily 5 group A member 2 (O00482 whole entry): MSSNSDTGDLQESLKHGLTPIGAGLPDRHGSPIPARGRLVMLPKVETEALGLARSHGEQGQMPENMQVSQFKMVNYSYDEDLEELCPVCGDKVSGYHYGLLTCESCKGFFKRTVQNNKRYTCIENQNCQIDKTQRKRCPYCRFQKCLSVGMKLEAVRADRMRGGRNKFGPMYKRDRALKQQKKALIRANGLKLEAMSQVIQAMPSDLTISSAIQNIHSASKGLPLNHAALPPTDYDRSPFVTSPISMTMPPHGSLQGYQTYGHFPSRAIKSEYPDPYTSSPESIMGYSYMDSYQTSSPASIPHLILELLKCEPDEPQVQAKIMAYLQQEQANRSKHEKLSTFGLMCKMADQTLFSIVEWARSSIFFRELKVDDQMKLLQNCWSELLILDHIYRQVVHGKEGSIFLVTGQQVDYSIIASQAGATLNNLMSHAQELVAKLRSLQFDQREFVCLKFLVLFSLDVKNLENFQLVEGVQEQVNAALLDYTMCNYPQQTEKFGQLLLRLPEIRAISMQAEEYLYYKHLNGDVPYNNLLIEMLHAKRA
# Chain of Beta Lactamase (Q932Y6 whole entry): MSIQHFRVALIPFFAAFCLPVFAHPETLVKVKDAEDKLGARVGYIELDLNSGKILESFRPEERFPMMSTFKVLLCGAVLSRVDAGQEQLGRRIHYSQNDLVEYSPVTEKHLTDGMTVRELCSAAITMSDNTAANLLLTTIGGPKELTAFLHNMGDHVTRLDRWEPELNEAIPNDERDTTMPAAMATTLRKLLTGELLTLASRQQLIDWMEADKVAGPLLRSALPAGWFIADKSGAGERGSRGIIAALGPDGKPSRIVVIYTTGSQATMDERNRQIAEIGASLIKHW
# Chain of Caspase-6 (P55212 24-179 limits assumed): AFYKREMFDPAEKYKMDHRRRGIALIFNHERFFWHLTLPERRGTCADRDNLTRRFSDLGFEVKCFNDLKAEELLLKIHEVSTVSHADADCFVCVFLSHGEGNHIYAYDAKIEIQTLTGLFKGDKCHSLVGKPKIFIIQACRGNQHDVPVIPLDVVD
# Chain of Caspase-6 (P55212 194-293 limits assumed): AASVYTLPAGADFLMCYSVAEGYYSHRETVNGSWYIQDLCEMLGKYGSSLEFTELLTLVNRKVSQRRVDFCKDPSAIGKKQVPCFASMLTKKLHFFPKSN
# Chain of Nuclear receptor subfamily 0 group B member 1 (P51843 whole entry): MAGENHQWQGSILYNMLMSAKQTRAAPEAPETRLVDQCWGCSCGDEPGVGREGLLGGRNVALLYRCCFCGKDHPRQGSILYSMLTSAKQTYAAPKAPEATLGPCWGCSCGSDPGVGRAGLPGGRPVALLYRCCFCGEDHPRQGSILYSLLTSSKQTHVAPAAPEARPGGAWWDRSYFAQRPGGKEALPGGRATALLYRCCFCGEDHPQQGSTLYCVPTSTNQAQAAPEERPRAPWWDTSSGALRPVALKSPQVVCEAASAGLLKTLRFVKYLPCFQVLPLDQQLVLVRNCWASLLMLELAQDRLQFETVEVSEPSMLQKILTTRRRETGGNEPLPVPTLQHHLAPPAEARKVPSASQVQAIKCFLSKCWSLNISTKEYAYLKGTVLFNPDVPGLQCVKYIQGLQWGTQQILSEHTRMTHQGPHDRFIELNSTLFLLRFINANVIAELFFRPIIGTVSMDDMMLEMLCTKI
# Chain of Steroidogenic factor 1 (Q13285 whole entry): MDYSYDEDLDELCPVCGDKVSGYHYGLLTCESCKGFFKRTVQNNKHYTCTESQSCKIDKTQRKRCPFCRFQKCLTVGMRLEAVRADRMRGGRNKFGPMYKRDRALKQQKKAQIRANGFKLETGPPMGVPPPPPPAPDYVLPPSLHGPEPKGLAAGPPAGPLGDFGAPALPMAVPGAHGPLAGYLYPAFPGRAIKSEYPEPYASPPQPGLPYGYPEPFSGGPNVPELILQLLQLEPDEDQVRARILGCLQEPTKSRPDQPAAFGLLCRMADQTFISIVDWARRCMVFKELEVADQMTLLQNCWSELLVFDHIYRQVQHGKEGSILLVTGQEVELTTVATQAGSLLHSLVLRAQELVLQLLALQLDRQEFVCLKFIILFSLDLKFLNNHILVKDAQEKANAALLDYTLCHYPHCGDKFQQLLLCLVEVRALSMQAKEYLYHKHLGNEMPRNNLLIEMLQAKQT
structure (smiles),measurement,setting,value
COc1cc2c(cc1OC)C(C)N(C(=O)c1nccnc1C(=O)O)CC2 (stereo not drawn),IC50,Beta-lactamase [1],> 59.6 µM (inactive)
same,IC50,Beta-lactamase [2],> 59.6 µM (inactive)
same,IC50,Beta-lactamase [3],> 59.6 µM (inactive)
C[C@@H]1CN([C@@H](C)CO)C(=O)c2cccc(NC(=O)c3ccncc3)c2O[C@H]1CN(C)Cc1ccc(C(F)(F)F)cc1,IC50,[4],10 µM (inconclusive)
O=C(Nc1ccc(Cl)cn1)c1ccc2nccnc2c1,IC50,cells,> 67.6 µM (inactive)
same,IC50,[5],> 67.6 µM (inactive)
CCOc1ccccc1NC(=O)Cc1cccs1,AC50,Caspase-6,16.7 µM (active)
COc1ccc(-n2sc3ccccc3c2=O)cc1,IC50,Hexokinase,5.35 µM (active)
same,IC50,[6],9.6 µM (active)
same,IC50,[7],5.79 µM (active)
same,IC50,Beta Lactamase,27 µM (inactive)
same,CC50,[8],79.7 µM (active)
same,IC50,[9],34.5 µM (active)
same,EC50,[10],> 91.2 µM (inactive)
same,EC50,[11],> 91.2 µM (inactive)
C/C(CC(=O)Nc1cccc(Br)c1)=N\NC(=O)c1ccc(O)cc1O,IC50,[12],1.23 µM (active)
same,IC50,[13],83.3 µM (inactive)
same,IC50,[14],0.756 µM (active)
CN(CC(=O)Nc1ccccc1Cl)C(=O)COC(=O)c1nc(Cl)c(Cl)c(Cl)c1Cl,IC50,[7],8.62 µM (active)
same,EC50,[10],> 91.2 µM (inactive)
same,EC50,[11],> 91.2 µM (inactive)
CCOC(=O)N=S(N)(=O)c1ccccc1 (stereo not drawn),IC50,Beta-lactamase [1],> 59.6 µM (inactive)
same,IC50,Beta-lactamase [2],> 59.6 µM (inactive)
same,IC50,Beta-lactamase [3],> 59.6 µM (inactive)
COc1ccc(OCCNC(=O)C2(C)CCN2Cc2ccc(SC)cc2)cc1 (stereo not drawn),IC50,[15],5.57 µM (active)
same,IC50,Steroidogenic factor 1,3.51 µM (active)
same,IC50,[16],35.9 µM (inactive)
COc1ccc(C(=O)Nc2cccnc2)cc1OC,AC50,[17],8.29 µM (active)
